For the series the following is noted: for Solubility (%w/v): crotamiton tests. As to the method:
500 mg crotamiton (SynTech, Ph.Eur. grade) is weighed in a 5-ml volumetric flask; the flask is then filled to 5 ml with F6H8 (Novaliq, purity >99%), closed and shaken for 5 min at 280 rpm, RT.

The results in this text go back to patent US20230066008A1, “ANTIPARASITIC COMPOSITION” (DERMALIQ THERAPEUTICS, INC., priority 2020, published 2023).

Like-named read-outs stand apart in the source and are kept apart here. A value given as a limit tells only on which side of the number the result lay.

For `CC=CC(=O)N(CC)c1ccccc1C` [Crotamiton, crotamiton], the “Appearance of resulting solution” value (100 mg/ml (10% w/v) in F6H8, shaken 5 min at 280 rpm, RT) is listed as “clear”. Also, the “Solubility (%w/v)” value is given as above 12%w/v (solvent F4H5), “^~6%w/v” (solvent F6H2) and above 12%w/v (solvent F6H8).
